Earlier results as cited in patent US20240000730A1, “ANTIHISTAMINE SEMI-SOLID CHEWABLE GEL COMPOSITIONS AND METHODS OF MAKING AND USING THEREOF” (Seattle Gummy Company, priority 2021, published 2024).

What was measured:
[1] = ITC measurements
[2] = ITC measurements; remark: listed apart in the source
[3] = ITC measurements; remark: listed apart in the source

## O=C(O)COCCN1CCN(C(c2ccccc2)c2ccc(Cl)cc2)CC1 (stereo not drawn) [Cetirizine, cetirizine]
[1]
  association constant K(a) of the cetirizine-α-cyclodextrin complex: 1434 ± 60 M⁻¹
[2]
  association constant K(a) of the cetirizine-β-cyclodextrin complex: 5641 ± 358 M⁻¹
[3]
  association constant of the cetirizine-γ-cyclodextrin complex: 1200±50 (−1)
